According to US20250099517A1, “Use of Lactobacillus reuteri Y7 strain for prevention or treatment of ocular diseases” (Taipei Medical University, priority 2023, published 2025):

Tests used:
Type in all cases: in vivo, C57BL/6 mice
[1] = system: Occludin, Claudin-1, ZO-1 gene expression; experiment: q-PCR of tight junction gene expression in buccal mucosas; details: Y7H high-dosage group, p<0.05
Description: The C57BL/6 mice, which weighed between 23 and 25 g, were divided into seven groups randomly. In each group, the six mice induced by blue light successfully were incorporated in experiments. The samples dissolved in deuterium-depleted water (DDW) were fed to mice through oral tubes once a day. […] Then, the real-time quantitative polymerase chain reaction was enabled to detect gene expressions related to inflammatory hormones and apoptosis such as TNF-α, IL-1B, IL-6, Bax, Bcl-2, Caspase1, Caspase3 and NLRP3 for comparisons with the endogenous level of β-actin, GAPDH or 18S rRNA. […] The gene expressions related to tight junctions of mice' eyes, buccal mucosas and colons after induction of blue light were analyzed through q-PCR and shown in FIG. 10a, FIG. 10d and FIG. 10g for Occludin, FIG. 10b, FIG. 10e and FIG. 10h for Claudin-1 and FIG. 10c, FIG. 10f and FIG. 10i for ZO-1, respectively.

[2] = system: Occludin, Claudin-1, ZO-1 gene expression; experiment: q-PCR of tight junction gene expression in colons; details: for gene expressions of ZO-1: p<0.05
Experimental: (§1) The C57BL/6 mice, which weighed between 23 and 25 g, were divided into seven groups randomly. In each group, the six mice induced by blue light successfully were incorporated in experiments. The samples dissolved in deuterium-depleted water (DDW) were fed to mice through oral tubes once a day. The groups were named and introduced as follows: • (1) Solvent not classified group (NC): The mice were fed with 0.2 ml deuterium-depleted water (DDW) through tubes; • (2) Negative control group (Blue light (BL)): The mice were fed with 0.2 ml deuterium-depleted water (DDW) through tubes and exposed to blue light; • (3) Low-dosage Y7 probiotics group […]): The mice were fed with low-dosage Y7 probiotics (probiotic counts of 1.0×10^8 CFU/ml dissolved in 0.2 ml DDW per day) and exposed to blue light; • (4) High-dosage Y7 probiotics group […]): The mice were fed with high-dosage Y7 probiotics (probiotic counts of 1.0×10^9 CFU/ml dissolved in 0.2 ml DDW per day) and exposed to blue light; • (5) Positive control group (lutein (LU)): The mice were fed with lutein and exposed to blue light. The recommended human dosage of lutein is 30 mg. The mouse cage (48×25×20 cm) placed inside a stainless ventilated box was equipped with blue light boards as blue light sources around and above. In the experiment of animals exposed to blue light, six-week-old mice staying in the mouse cage were fed with drinking water as well as fodders and exposed to 400 Lux blue light illumination under the light-dark cycle of 12-hour light and 12-hour dark. The experiment was aimed at causing mice' late dry macular disease induced by chronic light injuries for simulating a human being's macular disease after long-term exposure to short-wavelength blue light from 3C products in daily life. The eyes of a mouse sacrificed were collected for the following purposes. RNAs extracted with Trizol were reverse-transcribed to cDNAs. Then, the real-time quantitative polymerase chain reaction was enabled to detect gene expressions related to inflammatory hormones and apoptosis such as TNF-α, IL-1B, IL-6, Bax, Bcl-2, Caspase1, Caspase3 and NLRP3 for comparisons with the endogenous level of β-actin, GAPDH or 18S rRNA. [table] The gene expressions related to tight junctions of mice' eyes, buccal mucosas and colons after induction of blue light were analyzed through q-PCR and shown in FIG. 10a, FIG. 10d and FIG. 10g for Occludin, FIG. 10b, FIG. 10e and FIG. 10h for Claudin-1 and FIG. 10c, FIG. 10f and FIG. 10i for ZO-1, respectively.

[3] = system: Occludin, Claudin-1, ZO-1 gene expression; experiment: q-PCR of tight junction gene expression in eyes; details: for gene expressions of Occludin compared with the LU group: p<0.05
Experimental: as §1

[4] = system: catalase (CAT); experiment: serum antioxidant enzyme activity by ELISA: CAT
Experimental: The C57BL/6 mice, which weighed between 23 and 25 g, were divided into seven groups randomly. In each group, the six mice induced by blue light successfully were incorporated in experiments. The samples dissolved in deuterium-depleted water (DDW) were fed to mice through oral tubes once a day. The groups were named and introduced as follows: • (1) Solvent not classified group (NC): The mice were fed with 0.2 ml deuterium-depleted water (DDW) through tubes; • (2) Negative control group (Blue light (BL)): The mice were fed with 0.2 ml deuterium-depleted water (DDW) through tubes and exposed to blue light; • (3) Low-dosage Y7 probiotics group (Y7L): The mice were fed with low-dosage Y7 probiotics (probiotic counts of 1.0×10^8 CFU/ml dissolved in 0.2 ml DDW per day) and exposed to blue light; • (4) High-dosage Y7 probiotics group (Y7H): The mice were fed with high-dosage Y7 probiotics (probiotic counts of 1.0×10^9 CFU/ml dissolved in 0.2 ml DDW per day) and exposed to blue light; • (5) Positive control group (lutein (LU)): The mice were fed with lutein and exposed to blue light. The recommended human dosage of lutein is 30 mg.
The mouse cage (48×25×20 cm) placed inside a stainless ventilated box was equipped with blue light boards as blue light sources around and above. […]
The performance of antioxidant enzymes in serums was analyzed through the enzyme-linked immunosorbent assay (ELISA).

Lactobacillus reuteri Y7 [Y7 probiotics]
gene expressions of ZO-1 compared with NC, BL or LU groups [1]: increased significantly | gene expressions of Claudin-1 ([2]; Y7H high-dosage group): ascending trend | gene expressions of Occludin ([2]; Y7H high-dosage group): ascending trend | gene expressions of ZO-1 ([2]; Y7H high-dosage group): increased significantly | gene expressions of Claudin-1 ([2]; Y7L low-dosage group): ascending trend | gene expressions of Occludin ([2]; Y7L low-dosage group): ascending trend | gene expressions of ZO-1 ([2]; Y7L low-dosage group): increased significantly | gene expressions of Claudin-1 compared with the LU group ([3]; Y7H high-dosage group): descending trend | gene expressions of ZO-1 compared with the LU group ([3]; Y7H high-dosage group): descending trend | gene expressions of Occludin compared with the LU group ([3]; Y7H high-dosage group): decreased significantly | gene expressions of Claudin-1 compared with the LU group ([3]; Y7L low-dosage group): descending trend | gene expressions of ZO-1 compared with the LU group ([3]; Y7L low-dosage group): descending trend | gene expressions of Occludin compared with the LU group ([3]; Y7L low-dosage group): decreased significantly | activity of catalase (CAT) compared with the BL group ([4]; Y7H high-dosage group): increased significantly | activity of catalase (CAT) compared with the BL group ([4]; Y7L low-dosage group): increased significantly
